TGI data for 9 compounds are collected here from PubChem BioAssay (NCI).

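Results reflect a 48-hour exposure of cells in 96-well plates to compound at five concentrations. TGI: total growth inhibition.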

Test systems include SK-OV-3 ovarian; BT-549 breast; SK-MEL-5 melanoma; A498 renal; HL-60(TB) leukemia; K-562 leukemia; HCT-15 colon; UACC-257 melanoma; SW-620 colon; SN12C renal; SR leukemia.
Holding throughout (assay): inhibition of tumour cell growth, NCI panel, 48 h

Turning to `COCCc1c(C)c(C#N)c2n(C)c3ccccc3n2c1=O`, the TGI in the experiment on SK-OV-3 ovarian, in the experiment on BT-549 breast, in the experiment with SK-MEL-5 melanoma, with A498 renal, in the experiment with HL-60(TB) leukemia and in the experiment on K-562 leukemia was above 10 µM in each case. The TGI with HCT-15 colon, in the experiment on UACC-257 melanoma, in the experiment on SW-620 colon, in the experiment with SN12C renal and with SR leukemia was above 10 µM throughout.

As to `CCN(CC)CCN1c2ccccc2Sc2ccc3ccccc3c21`, the TGI was 29.4 µM in the experiment with SK-OV-3 ovarian; 29.9 µM in the experiment on BT-549 breast; 10.2 µM in the experiment with SK-MEL-5 melanoma; 24.7 µM with A498 renal; 15.1 µM with HL-60(TB) leukemia; 15.7 µM in the experiment with K-562 leukemia. The TGI in the experiment with HCT-15 colon was determined as 22.1 µM; in the experiment with UACC-257 melanoma it was 21.5 µM; in the experiment on SW-620 colon, 24.4 µM; with SN12C renal it was 24.4 µM; in the experiment on SR leukemia it was 20.9 µM.

On to `CCOC(=O)c1ccc(N=C2SC(=S)N(c3ccc(F)cc3)C2=Nc2ccc(C(=O)OCC)cc2)cc1`, for which the TGI in the experiment with SK-OV-3 ovarian is above 100 µM; with BT-549 breast, 40.6 µM; in the experiment with SK-MEL-5 melanoma, 25.1 µM; in the experiment on A498 renal, above 100 µM; in the experiment with HL-60(TB) leukemia it was 22.3 µM; in the experiment on K-562 leukemia, 47.3 µM. For the same compound, the TGI worked out at 21.4 µM with HCT-15 colon; 37.4 µM in the experiment on UACC-257 melanoma; 30 µM in the experiment with SW-620 colon; 33.6 µM in the experiment with SN12C renal; 29.3 µM in the experiment on SR leukemia.

As for `C=C1c2nc3ccccc3n2C=C(c2ccc(Cl)cc2)N1c1ccc(OCCN2CCOCC2)cc1`, the TGI is above 100 µM in the experiment with SK-OV-3 ovarian; above 100 µM in the experiment with BT-549 breast; 71.5 µM in the experiment on SK-MEL-5 melanoma; above 100 µM in the experiment on A498 renal; 35 µM in the experiment with HL-60(TB) leukemia; above 100 µM in the experiment on K-562 leukemia. The TGI with HCT-15 colon was above 100 µM; in the experiment with UACC-257 melanoma it was 90.3 µM; in the experiment on SW-620 colon, above 100 µM; in the experiment on SN12C renal, above 100 µM; in the experiment with SR leukemia it was 42 µM.

For `NS(=O)(=O)c1nnc(NC(=O)CCC(=O)O)s1`, the TGI in the experiment with SK-OV-3 ovarian, in the experiment with BT-549 breast, in the experiment on SK-MEL-5 melanoma, in the experiment on A498 renal, in the experiment on HL-60(TB) leukemia and with K-562 leukemia was above 100 µM in each case. For the same compound, the TGI in the experiment with HCT-15 colon, in the experiment with UACC-257 melanoma, with SW-620 colon, with SN12C renal and with SR leukemia was above 100 µM in each case.

On to `Cc1csc2c(P(=O)(OC(C)C)OC(C)C)c(-c3ccccc3)cn12`, for which the TGI with SK-OV-3 ovarian stood at 33 µM; in the experiment with BT-549 breast, 36 µM; in the experiment on SK-MEL-5 melanoma, 29.7 µM; in the experiment on A498 renal, 34.1 µM; in the experiment on HL-60(TB) leukemia, 45.9 µM; with K-562 leukemia it was 45.7 µM. Besides, the TGI with HCT-15 colon is 31.6 µM; in the experiment with UACC-257 melanoma it was 27.8 µM; in the experiment on SW-620 colon it was 35.8 µM; with SN12C renal, 32.1 µM; in the experiment with SR leukemia, 36.7 µM.

On to `N#CS/C(C(Cl)=C(Cl)Cl)=C(/Cl)[N+](=O)[O-]`, for which the TGI in the experiment with SK-OV-3 ovarian is 31.2 µM; with BT-549 breast it was 4.92 µM; with SK-MEL-5 melanoma it was 6.37 µM; in the experiment with A498 renal, 38.2 µM; in the experiment with HL-60(TB) leukemia, 0.512 µM; in the experiment with K-562 leukemia, 1.62 µM. For the same compound, the TGI is 6.59 µM with HCT-15 colon; 3.79 µM in the experiment with UACC-257 melanoma; 3.5 µM in the experiment on SW-620 colon; 4.92 µM in the experiment with SN12C renal; 2.15 µM with SR leukemia.

Regarding `CCCCc1ccc(Nc2nc3c(ncn3C3OC(COC(C)=O)C(OC(C)=O)C3OC(C)=O)c(=O)[nH]2)cc1` (centres undefined), the TGI was 71.1 µM in the experiment with SK-OV-3 ovarian; 32.2 µM in the experiment with BT-549 breast; 31.1 µM in the experiment on SK-MEL-5 melanoma; above 100 µM in the experiment on A498 renal; 55.6 µM in the experiment with HL-60(TB) leukemia; 38.5 µM in the experiment with K-562 leukemia. Besides, the TGI is above 100 µM in the experiment with HCT-15 colon; 34.3 µM in the experiment on UACC-257 melanoma; 48.2 µM with SW-620 colon; 42.3 µM in the experiment with SN12C renal; 35.9 µM with SR leukemia.

Take `CCCCC1Cc2cc(O)ccc2-c2n1c1cc(O)ccc1[n+]2C` (centres undefined) (tested in a mixture with another compound): the TGI is above 100 µM in the experiment on SK-OV-3 ovarian; above 100 µM in the experiment with BT-549 breast; 22 µM in the experiment with SK-MEL-5 melanoma; above 100 µM with A498 renal; above 86.4 µM with HL-60(TB) leukemia; above 100 µM in the experiment with K-562 leukemia. In addition, the TGI in the experiment on HCT-15 colon was above 88.3 µM; with UACC-257 melanoma, 80 µM; in the experiment on SW-620 colon, above 100 µM; in the experiment on SN12C renal, above 100 µM; in the experiment on SR leukemia, above 100 µM.
